Values of other authors in US12359156B2, “Platform and method for testing antibiotic sensitivity of a polymicrobial infection” (Wisconsin Alumni Research Foundation, priority 2018, dated 2025).

Test system: infection (patients' bacterial pathogens)
Conditions: phase 3 clinical trial

CO/N=C(\C(=O)N[C@@H]1C(=O)N2C(C(=O)O)=C(COC(C)=O)CS[C@H]12)c1csc(N)n1 [cefotaxime]
patients who responded to the antibiotic therapy (patients with a "resistant" antibiotic sensitivity test result): 64%
patients who would respond to the antibiotic therapy (patients with a "sensitive" antibiotic sensitivity test result, best case scenario): 93%
